The subject of the test is 1-st type of simple virus herpes, Kleiman strain. Description: Herpetic meningoencephalitis model in mice. The test is classed as in vivo, white mice. The note with it: for Lethality rate / ML (mean lifespan) / Protective effect (difference between survival rates in experimental and control groups) / Survival rate: introduced 3, 24, 48, 72 and 96 h after infecting. As to the method:
Proteoglycan efficiency was estimated by means of herpetic menigeoencephalitis model in mice. The 1-st type of simple virus herpes of Kleiman strained was used. The virus infectuous titer in Vero cells culture was of 6.5-7.01 1 g CPA50^1 /0.1 ml while by intracerebral or intraperitonneal introduction in white mice mass of 7-8 g it was equal to 5.5-6.0 1 g LD50 /0.03 ml. The strain is characterized by increased neurovirulence. The maximum lesion of cells of fibroblasts in hen embryons or of Vero cells (75-100%) was already observed in 18-20 h after infecting. To reproduce herpetic meningoencephalitis in mice the latter were infected with Kleiman virus intraperitonneally in volume of 0.2 ml of both 10 and 100 LD50 doses. The treatment results were estimated as a mean lifespan (ML) and the protective effect which is difference between survival rates in experimental and control groups.
*-proteoglycan was introduced 5 days before infecting
**-proteoglycan was introduced 5 days until infecting and 3 h after the
** Acyclovir was introduced in 3, 24, 48, 72 and 96 h after the infecting.

Each structure is given as a SMILES string.

`Nc1nc2c(ncn2COCCO)c(=O)[nH]1` [Acyclovir]: where the note is “10 LD50 virus dose”, the Lethality rate was 68%; the “ML (mean lifespan)” value turned out to be 7.81 ± 1.9 days; the “Protective effect (difference between survival rates in experimental and control groups)” value came out at 15%; the Survival rate amounted to 32%. For the same molecule, where the note is “100 LD50 virus dose”, the Effect observed entry is “no effect was observed”; the Lethality rate turned out to be 100%; the “ML (mean lifespan)” value came out at 5.3 ± 1.8 days; the “Protective effect (difference between survival rates in experimental and control groups)” value is listed as 0%. In addition, under “100 LD50 virus dose”, the Survival rate is listed as 0%.
